In patent publication US10294202B2, “Pyrrolidinones as herbicides” (FMC Corporation, priority 2013, dated 2019):

How the values were obtained:
deadnettle = test: Test D pre-/postemergence herbicide test; format: in vivo, Lamium amplexicaule; conditions: for Plant response rating: Deadnettle, scale 0 to 100; for Plant response rating, Deadnettle: scale 0 to 100 (0 no effect, 100 complete control)
Description: (§1) Seeds of plant species selected from bluegrass (annual bluegrass, Poa annua), blackgrass (Alopecurus myosuroides), canarygrass (littleseed canarygrass, Phalaris minor), chickweed (common chickweed, Stellaria media), galium (catchweed bedstraw, Galium aparine), bromegrass, downy (downy bromegrass, Bromus tectorum), field poppy (Papaver rhoeas), field violet (Viola arvensis), foxtail, green (green foxtail, Setaria viridis), deadnettle (henbit deadnettle, Lamium amplexicaule), ryegrass, Italian (Italian ryegrass, Lolium multiflorum), kochia (Kochia scoparia), lambsquarters (Chenopodium album), oilseed rape (Brassica napus), pigweed (Amaranthus retroflexus), chamomile (scentless chamomile, Matricaria inodora), Russian thistle (Salsola kali), speedwell (bird's-eye speedwell, Veronica persica), barley, spring (spring barley, Hordeum vulgare), wheat, spring (spring wheat, Triticum aestivum), buckwheat, wild (wild buckwheat, Polygonum convolvulus), mustard, wild (wild mustard, Sinapis arvensis), oat, wild (wild oat, Avena fatua), radish, wild (wild radish, Raphanus raphanistrum), […]), barley, winter (winter barley, Hordeum vulgare), and wheat, winter (winter wheat, Triticum aestivum) were planted into a silt loam soil and treated preemergence with test chemicals formulated in a non-phytotoxic solvent mixture which included a surfactant. At the same time, these species were planted in pots containing Redi-Earth® planting medium (Scotts Company, 14111 Scottslawn Road, Marysville, Ohio 43041) comprising spaghnum peat moss, vermiculite, wetting agent and starter nutrients and treated with postemergence applications of the test chemicals formulated in the same manner. Plants ranged in height from 2 to 18 cm (1- to 4-leaf stage). Treated plants and controls were maintained in a controlled growth environment for 7 to 21 days after which time all species were compared to controls and visually evaluated. Plant response ratings, summarized in Table D, are based on a scale of 0 to 100 where 0 is no effect and 100 is complete control. A dash (-) response means no test result.

field violet = test: Test D pre-/postemergence herbicide test; format: in vivo, Viola arvensis; conditions: for Plant response rating: Field Violet, scale 0 to 100; for Plant response rating, Field Violet: scale 0 to 100 (0 no effect, 100 complete control)
Description: as §1

cocklebur = test: Test C pre-/postemergence herbicide test; format: in vivo, Xanthium strumarium
Description: Seeds of plant species selected from blackgrass (Alopecurus myosuroides), ryegrass, Italian (Italian ryegrass, Lolium multiflorum), wheat (winter wheat, Triticum aestivum), galium (catchweed bedstraw, Galium aparine), corn (Zea mays), crabgrass, large (large crabgrass, Digitaria sanguinalis), foxtail, giant (giant foxtail, Setaria faberii), johnsongrass (Sorghum halepense), lambsquarters (Chenopodium album), morningglory (Ipomoea coccinea), nutsedge, yellow (yellow nutsedge, Cyperus esculentus), pigweed (Amaranthus retroflexus), ragweed (common ragweed, Ambrosia elatior), soybean (Glycine max), barnyardgrass (Echinochloa crus-galli), oilseed rape (Brassica napus), waterhemp (common waterhemp, Amaranthus rudis), kochia (Kochia scoparia), oat, wild (wild oat, Avena fatua), surinam grass (Brachiaria decumbens), foxtail, green (green foxtail, Setaria viridis), goosegrass (Eleusine indica), bromegrass, downy (downy bromegrass, Bromus tectorum), nightshade (eastern black nightshade, Solanum ptycanthum), cocklebur (common cocklebur, Xanthium strumarium), cupgrass, woolly (woolly cupgrass, Eriochloa villosa), bermudagrass (Cynodon dactylon), sunflower, (common oilseed sunflower, Helianthus annuus), Russian thistle (Salsola kali) and velvetleaf (Abutilon theophrasti) were planted into a blend of loam soil and sand and treated preemergence with test chemicals formulated in a non-phytotoxic solvent mixture which included a surfactant. At the same time, plants selected from these crop and weed species and also barley (winter barley, Hordeum vulgare), […]), chickweed (common chickweed, Stellaria media), deadnettle (henbit deadnettle, Lamium amplexicaule), and canarygrass (littleseed canarygrass, Phalaris minor) were planted in pots containing Redi-Earth® planting medium (Scotts Company, 14111 Scottslawn Road, Marysville, Ohio 43041) comprising spaghnum peat moss, vermiculite, wetting agent and starter nutrients and treated with postemergence applications of test chemicals formulated in the same manner. Plants ranged in height from 2 to 18 cm (1- to 4-leaf stage) for postemergence treatments. Treated plants and controls were maintained in a greenhouse for 13 to 15 days, after which time all species were compared to controls and visually evaluated. Plant response ratings, summarized in Table C, are based on a scale of 0 to 100 where 0 is no effect and 100 is complete control. A dash (-) response means no test result.

[1] = Preemergence, 62 g ai/ha, scale 0 to 100
[2] = Preemergence, 125 g ai/ha, scale 0 to 100 (0 no effect, 100 complete control)
[3] = Preemergence, 31 g ai/ha, scale 0 to 100 (0 no effect, 100 complete control)
[4] = Postemergence, 31 g ai/ha, scale 0 (no effect) to 100 (complete control)
[5] = Postemergence, 62 g ai/ha, scale 0 to 100 (0 no effect, 100 complete control)
[6] = Postemergence, 125 g ai/ha, scale 0 to 100 (0 no effect, 100 complete control)
[7] = Postemergence, 250 g ai/ha, scale 0 to 100 (0 no effect, 100 complete control)

SMILES | Plant response rating (deadnettle; Postemergence, 16 g ai/ha) | Plant response rating (deadnettle; Postemergence, 31 g ai/ha) | Plant response rating (deadnettle; Postemergence, 62 g ai/ha) | Plant response rating (deadnettle; Postemergence, 125 g ai/ha) | Plant response rating (deadnettle; Postemergence, 250 g ai/ha) | Plant response rating, Deadnettle (deadnettle; Preemergence, 62 g ai/ha) | Plant response rating, Deadnettle (deadnettle; Preemergence, 16 g ai/ha) | Plant response rating, Deadnettle (deadnettle; Preemergence, 31 g ai/ha) | Plant response rating (deadnettle; Preemergence, 125 g ai/ha) | Plant response rating (deadnettle; Preemergence, 250 g ai/ha) | Plant response rating (field violet; Postemergence, 31 g ai/ha) | Plant response rating (field violet; Postemergence, 62 g ai/ha) | Plant response rating (field violet; Postemergence, 125 g ai/ha) | Plant response rating, Field Violet (field violet; Preemergence, 62 g ai/ha) | Plant response rating, Field Violet (field violet; Preemergence, 31 g ai/ha) | Plant response rating, Cocklebur (cocklebur; [1]) | Plant response rating, Cocklebur (cocklebur; [2]) | Plant response rating, Cocklebur (cocklebur; [4]) | Plant response rating, Cocklebur (cocklebur; [5]) | Plant response rating, Cocklebur (cocklebur; [6]) | other results
O=C1NCC(c2ccc(F)c(F)c2)C1C(=O)Nc1ccccc1C(F)(F)F (racemic) [Compound 6] | 0 | 0 | 0 | 10 | 10 | 0 | 0 | 0 | 40 | 40 | 0 | 20 | 20 | 0 | 0 | – | – | – | – | – | Plant response rating (field violet; Postemergence, 16 g ai/ha): 0; Plant response rating (field violet; Postemergence, 250 g ai/ha): 25; Plant response rating, Field Violet (field violet; Preemergence, 16 g ai/ha): 0; Plant response rating (field violet; Preemergence, 125 g ai/ha): 0; Plant response rating (field violet; Preemergence, 250 g ai/ha): 0
O=C1NCC(c2ccc(F)c(C(F)(F)F)c2)C1C(=O)Nc1cccc(F)c1F (racemic) [Compound 77] | – | – | – | – | – | 65 | – | 15 | 60 | 75 | – | – | – | 20 | 15 | – | – | – | – | – | Plant response rating (field violet; Preemergence, 125 g ai/ha): 20; Plant response rating (field violet; Preemergence, 250 g ai/ha): 55
O=C1NCCC1C(=O)N(c1ccc(F)c(F)c1)c1ccccc1F (stereo not drawn) [Compound 5, N-(3,4-difluorophenyl)-N-(2-fluorophenyl)-2-oxo-3-pyrrolidinecarboxamide] | – | – | – | – | – | – | – | – | – | – | – | – | – | – | – | 0 | 0 | – | – | – | Cocklebur plant response rating (cocklebur; [3]): 0; Plant response rating, Cocklebur (cocklebur; Preemergence, 250 g ai/ha, scale 0 to 100 (0 no effect, 100 complete control)): 0
O=C1NCC(c2cc(F)c(F)c(F)c2)C1C(=O)Nc1cccc(F)c1F (stereo not drawn) [Compound 48] | – | – | – | – | – | – | – | – | – | – | – | – | – | – | – | 0 | 5 | 5 | 10 | 10 | Plant response rating, Cocklebur (cocklebur; Postemergence, 16 g ai/ha, scale 0 to 100 (0 no effect, 100 complete control)): 0; Plant response rating, Cocklebur (cocklebur; Preemergence, 16 g ai/ha, scale 0 to 100): 0; Cocklebur plant response rating (cocklebur; [3]): 0
O=C1NCC(c2cc(F)c(F)cc2F)C1C(=O)Nc1cccc(F)c1F (stereo not drawn) [Compound 50] | 0 | 0 | 0 | 0 | – | 100 | 50 | 50 | 100 | – | 0 | 0 | 0 | 0 | 0 | – | – | 5 | 5 | 5 | Plant response rating (field violet; Postemergence, 16 g ai/ha): 0; Plant response rating, Field Violet (field violet; Preemergence, 16 g ai/ha): 0; Plant response rating (field violet; Preemergence, 125 g ai/ha): 0; Plant response rating, Cocklebur (cocklebur; [7]): 5
O=C1NCC(c2ccc(Cl)c(F)c2)C1C(=O)Nc1cccc(F)c1F (stereo not drawn) [Compound 52] | 0 | 0 | 0 | 20 | 25 | 0 | 0 | 0 | 0 | 30 | 0 | 0 | 0 | – | – | 0 | 0 | 5 | 5 | 5 | Plant response rating (field violet; Postemergence, 16 g ai/ha): 0; Plant response rating (field violet; Postemergence, 250 g ai/ha): 0; Plant response rating, Cocklebur (cocklebur; [7]): 5; Cocklebur plant response rating (cocklebur; [3]): 0
O=C1NCC(c2ccc(F)c(Cl)c2)C1C(=O)Nc1ccccc1F (stereo not drawn) [Compound 60] | – | – | – | – | – | – | – | – | – | – | – | – | – | – | – | 0 | 0 | 0 | 0 | 0 | –
O=C1NCC(c2cccc(OC(F)(F)F)c2)C1C(=O)Nc1ccccc1F (stereo not drawn) [Compound 69] | – | – | – | – | – | – | – | – | – | – | – | – | – | – | – | – | – | – | – | – | Cocklebur plant response rating (cocklebur; Preemergence, 31 g ai/ha, scale 0 to 100, 0 is no effect and 100 is complete control): 0; Plant response rating (scale of 0 to 100), Cocklebur (cocklebur; Preemergence, 250 g ai/ha): 0
O=C1NCC(c2ccc(C(F)(F)F)cc2)C1C(=O)Nc1ccccc1F (stereo not drawn) [Compound 231] | – | 35 | 70 | 35 | 70 | 75 | – | 35 | – | 85 | 20 | 20 | 10 | 0 | 0 | – | – | – | – | – | Plant response rating, Deadnettle (deadnettle; Preemergence, 125 g ai/ha): 60; Plant response rating (field violet; Postemergence, 250 g ai/ha): 25; Plant response rating, Field Violet (field violet; Preemergence, 125 g ai/ha): 10; Plant response rating (field violet; Preemergence, 250 g ai/ha): 0
